The values that follow come from patent publication US20240360154A1, “AROYL SUBSTITUTED TRICYCLIC COMPOUND, PREPARATION METHOD THEREFOR AND USE THEREOF” (GENFLEET THERAPEUTICS (SHANGHAI) INC., priority 2020, published 2024).

In one experiment the test system is TMD-8 cells. Nature of the experiment: TMD-8 proliferation inhibition experiment. Format: cell-based. Conditions: human diffuse large B lymphoma cells, three days incubation. The procedure:
TMD-8 cells are human diffuse large B lymphoma (Mingzhou Bio, MZ-0832), cultured in 10% FBS+1% PS 1640 medium; OCI-LY10 is human diffuse large B lymphoma (BeNa Culture Collection, BNCC337742), cultured in 10% FBS+1% PS IMDM. Day 1: Cells at logarithmic growth phase were taken, counted and inoculated 600 TMD-8 or 2000 OCI-LY10 cells in a 384-well cell culture plate and cultured overnight. Day 2: A 3-fold gradient concentration stock solution of 400× compound was prepared with DMSO, and diluted 40-fold to a 10× compound stock solution with culture medium. The 10× compound stock solution was added to each cell culture well with a final concentration of 1× compound stock solution and a DMSO content of 0.25%. DMSO was used as experimental control, and culture medium was used as blank control. The incubation was continued for three days after compound addition. On the fifth day, 25 μL of […] was added to each well, mixed well and incubated for 10 minutes, then the chemiluminescence value (RLU value) was read. The cell proliferation inhibition rate (%)=(RLUcontrol−RLUcompound)/(RLUcontrol−RLUblank)×100% was calculated. The compound gradient dilution concentration and the corresponding cell proliferation inhibition rate were fit by using XLFit four-parameter method, and IC50 value was calculated.

In a further experiment the target is BTK (Homo sapiens (Human), UniProt Q06187). Nature of the experiment: BTK enzyme experiment (ADP-Glo kinase assay). Conditions: 10 nM BTK, ATP 125 μM, Poly(Glu4, Tyr1), 90 minutes at 20° C.; read-out: BTK(WT) IC50. Format: biochemical. An outline of the steps:
(§1)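 Wild-type or C481S BTK, added as 2× solution at 10 nM, preincubated 10 min with 3-fold compound dilutions in 50 mM HEPES pH 7.5, 10 mM MgCl2, 2 mM DTT, 0.0015% Brij-35. ADP-Glo luminescence norm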

In another experiment the target is BTK (C481S) (Homo sapiens (Human), UniProt Q06187, C481S). In words: BTK C481S enzyme experiment (ADP-Glo kinase assay). Particulars: 10 nM BTK C481S, ATP 125 μM, Poly(Glu4, Tyr1), 90 minutes at 20° C. Format: biochemical. An outline of the steps: as §1
Sequence of BTK (C481S) (Q06187 whole entry C481S): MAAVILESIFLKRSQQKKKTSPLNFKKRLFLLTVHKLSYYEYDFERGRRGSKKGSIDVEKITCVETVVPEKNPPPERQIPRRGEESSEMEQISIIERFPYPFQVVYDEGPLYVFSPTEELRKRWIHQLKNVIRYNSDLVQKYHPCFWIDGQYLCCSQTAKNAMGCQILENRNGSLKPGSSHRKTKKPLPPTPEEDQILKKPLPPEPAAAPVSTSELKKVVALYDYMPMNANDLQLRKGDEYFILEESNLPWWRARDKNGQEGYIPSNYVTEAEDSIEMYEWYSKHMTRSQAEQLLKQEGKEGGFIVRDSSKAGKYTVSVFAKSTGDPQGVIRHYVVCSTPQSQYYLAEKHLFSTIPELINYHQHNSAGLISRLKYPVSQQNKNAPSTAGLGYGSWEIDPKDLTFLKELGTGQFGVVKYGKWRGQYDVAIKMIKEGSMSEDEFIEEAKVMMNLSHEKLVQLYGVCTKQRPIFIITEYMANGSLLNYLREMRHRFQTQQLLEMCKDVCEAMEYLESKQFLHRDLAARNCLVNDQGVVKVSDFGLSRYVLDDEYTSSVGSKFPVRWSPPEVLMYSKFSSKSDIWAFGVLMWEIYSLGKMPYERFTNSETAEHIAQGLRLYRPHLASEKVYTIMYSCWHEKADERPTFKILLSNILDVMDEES

SMILES strings stand for the structures.

Sequence of BTK (Q06187 whole entry): as the sequence (Q06187 whole entry C481S) above, with S481C counted along it

As to `COC[C@]1(C)Nc2c(cnc3[nH]cc(C(=O)c4ccc(Oc5ccccc5)cc4Cl)c23)N(CCO)C1=O` [Z143], the 50% inhibitory concentration (IC50) with TMD-8 cells came out at 291 nM; on BTK it was 35.6 nM; on BTK (C481S) it was 23.2 nM.
Regarding `COC[C@]1(C)Nc2c(cnc3[nH]cc(C(=O)c4ccc(Oc5ncccc5F)cc4Cl)c23)NC1=O` [Z144, (S)-9-(2-chloro-4-((3-fluoropyridin-2-yl)oxy)benzoyl)-2-(methoxymethyl)-2-methyl-1,2,4,7-tetrahydro-3H-pyrrolo[3′,2′:5,6]pyrido[3,4-b]pyrazin-3-one], the half-inhibitory concentration (IC50) in the experiment with TMD-8 cells (Homo sapiens, TMD8, 72 h) was determined as 227 nM; on BTK, 11.7 nM; at BTK (C481S), 16.8 nM.
In the same order, the values of `[2H]C([2H])([2H])OC[C@]1(C)Nc2c(cnc3[nH]cc(C(=O)c4ccc(Oc5ncccc5F)cc4Cl)c23)NC1=O` [Z145, (S)-9-(2-chloro-4-((3-fluoropyridin-2-yl)oxy)benzoyl)-2-((methoxy-d3)methyl)-2-methyl-1,2,4,7-tetrahydro-3H-pyrrolo[3′,2′:5,6]pyrido[3,4-b]pyrazin-3-one] are 166 nM, 9.3 nM and 13.1 nM.
Taken in the same sequence, the figures for `[2H]C([2H])([2H])OC[C@]1(C)Nc2c(cnc3[nH]cc(C(=O)c4ccc(Oc5nccc(C)c5F)cc4Cl)c23)NC1=O` [Z146, (S)-9-(2-chloro-4-((3-fluoro-4-methylpyridin-2-yl)oxy)benzoyl)-2-((methoxy-d3)methyl)-2-methyl-1,2,4,7-tetrahydro-3H-pyrrolo[3′,2′:5,6]pyrido[3,4-b]pyrazin-3-one] were 195 nM, 10 nM and 16.3 nM.
Taken in the same sequence, the figures for `COC[C@]1(C)Nc2c(cnc3[nH]cc(C(=O)c4ccc(Oc5ncccc5Cl)cc4Cl)c23)NC1=O` [Z147, (S)-9-(2-chloro-4-((3-chloropyridin-2-yl)oxy)benzoyl)-2-(methoxymethyl)-2-methyl-1,2,4,7-tetrahydro-3H-pyrrolo[3′,2′:5,6]pyrido[3,4-b]pyrazin-3-one] were 279 nM, 11.1 nM and 19.8 nM.
`COC[C@]1(C)Nc2c(cnc3[nH]cc(C(=O)c4ccc(Oc5ccccc5F)cc4F)c23)NC1=O` [Z156, (S)-9-(2-fluoro-4-(2-fluorophenoxy)benzoyl)-2-(methoxymethyl)-2-methyl-1,2,4,7-tetrahydro-3H-pyrrolo[3′,2′:5,6]pyrido[3,4-b]pyrazin-3-one]: the IC50 in the experiment on TMD-8 cells (Homo sapiens, TMD8, 72 h) was 117 nM; at BTK, 20 nM; against BTK (C481S) it was 10.5 nM.
On to `COC[C@]1(C)Nc2c(cnc3[nH]cc(C(=O)c4ccc(Oc5cccc(F)c5)cc4Cl)c23)NC1=O` [Z157, (S)-9-(2-chloro-4-(3-fluorophenoxy)benzoyl)-2-(methoxymethyl)-2-methyl-1,2,4,7-tetrahydro-3H-pyrrolo[3′,2′:5,6]pyrido[3,4-b]pyrazin-3-one], for which the IC50 worked out at 145 nM in the experiment on TMD-8 cells (Homo sapiens, TMD8, 72 h); 15.2 nM at BTK; 10.8 nM against BTK (C481S).
On to `[2H]C([2H])([2H])OC[C@]1(C)Nc2c(cnc3[nH]cc(C(=O)c4ccc(Oc5cccc(F)c5)cc4Cl)c23)NC1=O` [Z162, (S)-9-(2-chloro-4-(3-fluorophenoxy)benzoyl)-2-((methoxy-d3)methyl)-2-methyl-1,2,4,7-tetrahydro-3H-pyrrolo[3′,2′:5,6]pyrido[3,4-b]pyrazin-3-one], for which the half-maximal inhibitory concentration (IC50) was found to be 169 nM in the experiment on TMD-8 cells (Homo sapiens, TMD8, 72 h); 25.6 nM on BTK; 36 nM on BTK (C481S).
Taken in the same sequence, the figures for `COC[C@]1(C)Nc2c(cnc3[nH]cc(C(=O)c4ccc(Oc5ccccc5OC)cc4Cl)c23)NC1=O` [Z163, (S)-9-(2-chloro-4-(2-methoxyphenoxy)benzoyl)-2-(methoxymethyl)-2-methyl-1,2,4,7-tetrahydro-3H-pyrrolo[3′,2′:5,6]pyrido[3,4-b]pyrazin-3-one] were 75.7 nM, 10.6 nM and 16.5 nM.
Taken in the same sequence, the figures for `COC[C@]1(C)Nc2c(cnc3[nH]cc(C(=O)c4ccc(Oc5ccccc5Cl)cc4Cl)c23)NC1=O` [Z164, (S)-9-(2-chloro-4-(2-chlorophenoxy)benzoyl)-2-(methoxymethyl)-2-methyl-1,2,4,7-tetrahydro-3H-pyrrolo[3′,2′:5,6]pyrido[3,4-b]pyrazin-3-one] were 145 nM, 22.4 nM and 30.1 nM.
For the compound `COC[C@]1(C)Nc2c(cnc3[nH]cc(C(=O)c4ccc(Oc5cccc(Cl)c5)cc4Cl)c23)NC1=O` [Z165, (S)-9-(2-chloro-4-(3-chlorophenoxy)benzoyl)-2-(methoxymethyl)-2-methyl-1,2,4,7-tetrahydro-3H-pyrrolo[3′,2′:5,6]pyrido[3,4-b]pyrazin-3-one], the IC50 in the experiment on TMD-8 cells (Homo sapiens, TMD8, 72 h) was found to be 366 nM; on BTK, 54.2 nM; against BTK (C481S) it was 73.9 nM.
Taken in the same sequence, the figures for `COC[C@]1(C)Nc2c(cnc3[nH]cc(C(=O)c4ccc(Oc5cccc(OC)c5)cc4Cl)c23)NC1=O` [Z166, (S)-9-(2-chloro-4-(3-methoxyphenoxy)benzoyl)-2-(methoxymethyl)-2-methyl-1,2,4,7-tetrahydro-3H-pyrrolo[3′,2′:5,6]pyrido[3,4-b]pyrazin-3-one] were 245 nM, 34 nM and 59.4 nM.
In the same order, the values of `CCOC[C@]1(C)Nc2c(cnc3[nH]cc(C(=O)c4ccc(Oc5cc(C)ccn5)cc4Cl)c23)NC1=O` [Z167, (S)-9-(2-chloro-4-((4-methylpyridin-2-yl)oxy)benzoyl)-2-(ethoxymethyl)-2-methyl-1,2,4,7-tetrahydro-3H-pyrrolo[3′,2′:5,6]pyrido[3,4-b]pyrazin-3-one] are 372 nM, 11.2 nM and 12.1 nM.
Take `COC[C@]1(C)Nc2c(cnc3[nH]cc(C(=O)c4ccc(Oc5cccc(F)c5OC)cc4Cl)c23)NC1=O` [Z173, (S)-9-(2-chloro-4-(3-fluoro-2-methoxyphenoxy)benzoyl)-2-(methoxymethyl)-2-methyl-1,2,4,7-tetrahydro-3H-pyrrolo[3′,2′:5,6]pyrido[3,4-b]pyrazin-3-one]: the half-maximal inhibitory concentration (IC50) with TMD-8 cells (Homo sapiens, TMD8, 72 h) came to 366 nM; at BTK it was 26.5 nM; on BTK (C481S), 18.4 nM.
In the same order, the values of `COC[C@]1(C)Nc2c(cnc3[nH]cc(C(=O)c4ccc(Oc5c(OC)ccc(F)c5F)cc4Cl)c23)NC1=O` [Z177, (S)-9-(2-chloro-4-(2,3-difluoro-6-methoxyphenoxy)benzoyl)-2-(methoxymethyl)-2-methyl-1,2,4,7-tetrahydro-3H-pyrrolo[3′,2′:5,6]pyrido[3,4-b]pyrazin-3-one] are 34.6 nM, 6.4 nM and 11.1 nM.
Taken in the same sequence, the figures for `[2H]C([2H])([2H])Oc1c(F)cccc1Oc1ccc(C(=O)c2c[nH]c3ncc4c(c23)N[C@@](C)(COC)C(=O)N4)c(Cl)c1` [Z178, (S)-9-(2-chloro-4-(3-fluoro-2-(methoxy-d3)phenoxy)benzoyl)-2-(methoxymethyl)-2-methyl-1,2,4,7-tetrahydro-3H-pyrrolo[3′,2′:5,6]pyrido[3,4-b]pyrazin-3-one] were 257 nM, 36.2 nM and 42.3 nM.
